# Measurements: patent US10336732B2, “1-heterocyclyl isochromanyl compounds and analogs for treating CNS disorders” (Sunovion Pharmaceuticals Inc., priority 2015, dated 2019)
# Target: T1, 5-HT7 (Homo sapiens, UniProt P34969)
# T1 construct: expressed in transfected cells; host or cells: CHO cells
# Assay: In vitro radioligand binding assay, 5-HT7, [3H]LSD
# Design: concentration or dose not given beside the values
# Settings: human recombinant (CHO cells)
# Method: Certain compounds were tested by in vitro binding assays using standard procedures. […] These receptors and assays are well known to those skilled in the art, as exemplified by the following: Abramovitz, M. et al. (2000), Biochem. Biophys. Acta., 1483: 285-293 (EP4, IP (PGI2)); Aharony, D. et al. (1993), Mol. Pharmacol., 44: 356-363 (NK2); Ardati, A. et al. (1997), Mol. Pharmacol., 51: 816-824 (NOP (ORL1)); Bignon, E. et al. (1999), J. Pharmacol. Exp. Ther. 289: 742-751 (CCK1 (CCKA)); Bloomquist, B. T. et al. (1998), Biochem. Biophys. Res. Commun., 243: 474-479 (GAL2); Brockhaus, M. et al. (1990), Proc. Natl. Acad. Sci. U.S.A., 87: 3127-3131 (TNF-α); Brown, G. B. (1986), J. Neurosci., 6: 2064-2070 (Na+ channel (site 2)); Buchan, K. W. et al. (1994), Brit. J. Pharmacol., 112: 1251-1257 (ETA); Cesura, A. M. et al. (1990), Mol. Pharmacol., 37: 358-366 (MAO-A); Choi, D. S. et al. (1994), FEBS Lett., 352: 393-399 (5-HT2B); Clark, A. F. et al. (1996), Invest. Ophtalmol. Vis. Sci., 37: 805-813 (GR); Couvineau, A. et al. (1985), Biochem. J., 231: 139-143 (VPAC1 (VIP1)); Dorje, F. et al. (1991), J. Pharmacol. Exp. Ther., 256: 727-733 (M1, M2, M3, M4); Ferry, G. et al. (2001), Eur. J. Pharmacol., 417: 77-89 (PPARγ); Fuchs, S. et al. (2001), Mol. Med., 7: 115-124 (ETB); Fuhlendorff, J. et al. (1990), Proc. Natl. Acad. Sci. U.S.A., 87: 182-186 (Y2); Ganapathy M E. et al. (1999), J. Pharmacol. Exp. Ther., 289: 251-260 (sigma (non-selective)); Gopalakrishnan, M. et al. (1996), J. Pharmacol. Exp. Ther., 276: 289-297 (N neuronal α4β2); Greengrass, P. and Bremner, R. (1979), Eur. J. Pharmacol., 55: 323-326 (α1 (non-selective)); Grandy, D. K. et al. (1989), Proc. Natl. Acad. Sci. U.S.A., 86: 9762-9766 (D25); Guard, S. et al. (1993), Eur. J. Pharmacol., 240:177-184 (BB (non-selective)); Heuillet, E. et al. (1993), J. Neurochem., 60: 868-876 (NK1, P2X); Hope, A. G. et al. (1996), Brit. J. Pharmacol., 118: 1237-1245 (5-HT3); Hoyer, D. et al. (1985), Eur. J. Pharmacol., 118: 1-12 (5-HT1B); Hugues, M. et al. (1982), J. Biol. Chem., 257: 2762-2769 (5-HT2A, SKCa channel); Joseph, S. S. et al. (2004), Naun.-Sch. Arch. Pharm., 369: 525-532 (β2); Le, M. T. et al. (2005), Eur. J. Pharmacol., 513: 35-45 (AT1); Le Fur, G. et al. (1983), Life Sci., 33: 449-457) (BZD (peripheral); Lee, Y. M. et al. (1993), J. Biol. Chem., 268: 8164-8169 (CCK2 (CCKB)); Leurs, R. et al. (1994), Brit. J. Pharmacol., 112: 847-854 (H2); Levin, M. C. et al. (2002), J. Biol. Chem., 277: 30429-30435 (11); Lewin, A. H. et al. (1989), Mol. Pharmacol., 35: 189-194 (Cl− channel (GABA-gated)); Lukas, R. J. (1986), J. Neurochem., 46: 1936-1941 (N muscle-type); Luthin, D. R. et al. (1995), Mol. Pharmacol., 47: 307-313; (A2A); Mackenzie, R. G. et al. (1994), Eur. J. Pharmacol., 266: 79-85 (D3); Mulheron, J. G. et al. (1994), J. Biol. Chem., 269: 12954-12962 (5-HT1A); Meng, F. et al. (1993), Proc. Natl. Acad. Sci. U.S.A., 90: 9954-9958 (κ (KOP)); Monsma, F. J. et al. (1993), Mol. Pharmacol., 43: 320-327 (5-HT6); Neote, K. et al. (1993), Cell, 72: 415-425 (CCR1); Pacholczyk, T. et al. (1991), Nature, 350: 350-354 (sst (non-selective, norepinephrine transporter)); Peralta, E. G. et al. (1987), Embo. J., 6: 3923-3929 (M3); Pristupa, Z. B. et al. (1994), Mol. Pharmacol., 45: 125-135 (dopamine transporter); Pruneau, D. et al. (1998), Brit. J. Pharmacol., 125: 365-372 (B2); Rees, S. et al. (1994), FEBS Lett., 355: 242-246 (5-HT5a); Reynolds, I. J. et al. (1986), J. Pharmacol. Exp. Ther., 237: 731-738 (Ca2+ channel (L, verapamil site)); Rinaldi-Carmona, M. et al. (1996), J. Pharmacol. Exp. Ther., 278: 871-878 (CB1); Salvatore, C. A. et al. (1993), Proc. Natl. Acad. Sci. U.S.A., 90: 10365-10369 (A3); Sarau, H. M. et al. (1997), J. Pharmacol. Exp. Ther., 281: 1303-1311 (NK3); Schioth, H. B. et al. (1997), Neuropeptides, 31: 565-571 (MC4); Sharples, C. […]
# T1 sequence (P34969 whole entry): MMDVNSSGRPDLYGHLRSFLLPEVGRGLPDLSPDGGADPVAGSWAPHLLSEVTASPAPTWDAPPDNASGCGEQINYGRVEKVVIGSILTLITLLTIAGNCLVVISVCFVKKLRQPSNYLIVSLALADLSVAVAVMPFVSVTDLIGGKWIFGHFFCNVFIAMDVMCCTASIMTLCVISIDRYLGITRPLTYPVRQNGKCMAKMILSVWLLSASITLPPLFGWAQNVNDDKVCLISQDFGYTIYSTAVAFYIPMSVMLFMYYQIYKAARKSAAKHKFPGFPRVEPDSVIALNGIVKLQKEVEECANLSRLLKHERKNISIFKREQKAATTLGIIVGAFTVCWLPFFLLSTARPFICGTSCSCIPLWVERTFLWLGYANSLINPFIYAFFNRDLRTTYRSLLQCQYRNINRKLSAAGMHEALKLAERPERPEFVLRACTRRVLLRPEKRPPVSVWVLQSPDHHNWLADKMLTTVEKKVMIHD
row,Structure (SMILES),5HT7 percent inhibition of specific binding
1,"Clc1ccc2c(c1)[C@H]([C@@H]1CCCN1)OCC2 [Compound I-29, (S)-2-((R)-7-chloroisochroman-1-yl)pyrrolidine]",52%
2,"Fc1cccc2c1[C@H]([C@@H]1CCCN1)OCC2 [Compound I-1, (S)-2-((R)-8-fluoroisochroman-1-yl)pyrrolidine]",88%
3,"Fc1cccc2c1[C@H]([C@@H]1CCN1)OCC2 [Compound I-83, (S)-2-((R)-8-fluoroisochroman-1-yl)azetidine]",99%
4,"Fc1ccc2c(c1)CCO[C@H]2[C@@H]1CCCN1 [Compound I-9, (S)-2-((R)-6-fluoroisochroman-1-yl)pyrrolidine]",80%
5,"Fc1cccc2c1CCO[C@@H]2[C@H]1CCN1 [Compound I-96, (R)-2-((S)-5-fluoroisochroman-1-yl)azetidine]",69%
6,"Fc1ccc2c(c1)CCO[C@H]2[C@@H]1CCN1 [Compound I-90, (S)-2-((R)-6-fluoroisochroman-1-yl)azetidine]",96%
7,"Fc1cccc2c1CCO[C@@H]2[C@@H]1CCN1 [Compound I-94, (S)-2-((S)-5-fluoroisochroman-1-yl)azetidine]",74%
8,"Fc1ccc2c(c1)[C@H]([C@@H]1CCCN1)OCC2 [Compound I-5, (2S)-2-((R)-7-fluoroisochroman-1-yl)pyrrolidine]",60%
